Measurements: patent EP0272223A1, “4-Oxo-1,3-benzodioxane derivative” (FARMACEUTICI CABER S.p.A., priority 1987, dated 1988)
Where two headings read alike, the source gives them in different places.

Key:
[1] = tested on: bronchosecretolytic activity; experiment: Bronchosecretolytic activity (Mawatari method); format: in vivo, male Wistar rat; details: equimolecular doses os (TF 914 360 mg/kg, Thiola 200 mg/kg); 10 animals
Experimental: The bronchosecretolytic activity was evaluated in the male Wistar rat by oral administration of TF 914 ac cording to the method of Mawatari (Mawatari H. Kagoshima Daigaku Igaku-Zasshi- 27, 561, 1976), in comparison with Thiola®, in equimolecular doses.

[2] = tested on: carrageenin induced pleuritis; experiment: Antiinflammatory activity - carrageenin induced pleuritis test (Vinegar method); format: in vivo, rat; details: 5 h; for EXUDATE VOLUME ml: 100 mg/kg p.o. 1 hour before carrageenin; for N. LEUKOCYTES % inhib. vs. contr. / EXUDATE VOLUME % vs.contr. / N. LEUKOCYTES ml: 100 mg/kg p.o.; for EXUDATE VOLUME % vs.contr.: protection on exudate volume; for N. LEUKOCYTES ml: total number of leukocytes in pleuric exudate
Experimental: The antiinflammatory activity was tested by the carrageenin induced pleuritis test in the rat, according to the method of Vinegar R. et al. (Proc. Soc. Exp. Biol. Mod., 1973, 143, 3).
TF 914 and phenylbutazone as a control were administered orally in equiponderal doses, 1 hour before the carrageenin injection in the pleuric cavity.
Five hours later the animals were killed, and volume of the pleuric exudate and total number of leukocytes therein were evaluated.

[3] = tested on: gastric mucosa; format: in vivo, rats
Experimental: The action of equimolecular doses of TF 914 and acetylsalicylic acid on gastric mucosa was evaluated by administering the products by the oral route to rats fasted for 18 hours at least.

[4] = tested on: Carrageenin oedema in the rat; experiment: Antiinflammatory activity - carrageenin oedema test (Winter method); format: in vivo; details: for PAW/VOLUME ml/10 - M ± ES 2h / PAW/VOLUME ml/10 - M ± ES 4h / PAW/VOLUME ml/10 - M ± ES 6h / PAW/VOLUME ml/10 - M ± ES 8h / PAW/VOLUME ml/10 - M ± ES 24h / PAW/VOLUME ml/10 - M ± ES Basal: equimolecular doses p.o. (ASA 100 mg/kg, TF 914 180 mg/kg) 30 minutes before carrageenin; for PAW/VOLUME ml/10 - M ± ES Basal: 10 animals; for AREAS Δ % M ± ES: area of the oedema curve; for AREAS Δ % M ± ES / AREAS inhib. vs. contr.: p.o. (ASA 100 mg/kg, TF 914 180 mg/kg); for AREAS inhib. vs. contr.: inhibition of area vs. control
Experimental: Antiinflammatory activity of TF 914 was evaluated by means of the carrageenin oedema test in the rat, according to the method of Winter, Rissly, Ness (Proc. Soc. Exp. Biol. Med., 1962, 111, 544), in comparison with acetylsalicylic acid at equimolecular doses.
The compound under test and acetylsalicylic acid, as a comparison, were administered by the oral route 30 minutes before subplantar injection of carrageenin. […]
The obtained results, which are shown in table 2, evidence the marked antiinflammatory activity of TF 914, said activity being higher than that of acetylsalicylic acid in equimolecular doses, under the experimental conditions used.

[5] = tested on: Phenylquinone writhing in the mouse; experiment: Analgesic activity - phenylquinone writhing test (Siegmund method); format: in vivo; details: for Mean number of writhings: equimolecular doses os (acetylsalicylic acid 100 mg/kg, TF 914 180 mg/kg) 30 min. before i.p. phenylquinone; for N. animals showing writhing / % inhib. vs. contr.: os (acetylsalicylic acid 100 mg/kg, TF 914 180 mg/kg); for % inhib. vs. contr.: writhings
Experimental: The analgesic activity was studied by the quinone writhing test in the mouse according to the method of Siegmund E. et al. (Proc. Soc. Exp. Biol. Med., 1957, 95, 729). TF 914 was orally administered, in comparison with acetylsalicylic acid, in equimolecular doses. The two drugs were administered 30 min. before intraperitoneal injection of phenylquinone.

[6] = Pharmacokinetics after oral administration, HPLC; format: in vivo; details: rat, equimolecular doses, vs. acetylsalicylic acid and Thiola
Experimental: The pharmakinetics studies on TF 914 were carried out in the rat, in comparison with acetylsalicylic acid and Thiola®, after oral administration of equimolecular doses of the three compounds.
Measurements were performed by HPLC.

[7] = Acute toxicity by single administration (LD50, Litchfield and Wilcoxon); details: in vivo
Experimental: Toxicity by single administrations of TF 914 was studied in the mouse and the rat, by oral and intraperitoneal route.
LD₅₀ values were calculated according to the method of Litchfield and Wilcoxon (J. Pharm. Exp. Therap., 1949, 96, 99).
The obtained results, which are summarized in table 1, evidenced that TF 914 has no toxicity.

**Q.** For `CC(S)C(=O)NCC(=O)O` (stereo not drawn) [Thiola®, reference compound], which “% increase of FlNa in comparison with controls” value [1] is on record?
**A.** The value was 33.4%.

**Q.** For `CCCCC1C(=O)N(c2ccccc2)N(c2ccccc2)C1=O` [PHENYLBUTAZONE, phenylbutazone, reference compound], which “EXUDATE VOLUME ml” value [2] is on record?
**A.** Its value is 1,75 ±2,25 ml.

**Q.** And the “N. LEUKOCYTES % inhib. vs. contr.” value [2]?
**A.** The value was 36,7%.

**Q.** And the “EXUDATE VOLUME % vs.contr.” value [2]?
**A.** The value was 28,9%.

**Q.** And the “N. LEUKOCYTES ml” value [2]?
**A.** Its value is 8,52 ±1,27 ml.

**Q.** With `CC(=O)Oc1ccccc1C(=O)O` [ASA, Acetylsalicylic acid, reference compound] as the molecule, how does the “Ulcer size (mm) x ± es” value ([3]; equimolecular doses os (ASA 100 mg/kg, TF 914 180 mg/kg), rats fasted at least 18 hours, 6 hours after treatment) read?
**A.** Its value is 3.6 ± 1.34 mm.

**Q.** What about the “gastro-injuring action (in words)” value ([3]; examination of the mucosa 6 hours after oral treatment, equimolecular doses) of the same molecule?
**A.** Its value is “marked gastro-injuring effects”.

**Q.** What about the “PAW/VOLUME ml/10 - M ± ES 2h” value [4] of the same molecule?
**A.** The value was 58,3 ± 2,5 ml/10.

**Q.** What about the “PAW/VOLUME ml/10 - M ± ES 4h” value [4] of the same molecule?
**A.** Its value is 66,0 ± 3,0 ml/10.

**Q.** What about the “PAW/VOLUME ml/10 - M ± ES 6h” value [4] of the same molecule?
**A.** Its value is 59,3 ± 1,7 ml/10.

**Q.** And the “PAW/VOLUME ml/10 - M ± ES 8h” value [4]?
**A.** The value was 52,8 ± 2,6 ml/10.

**Q.** And the “PAW/VOLUME ml/10 - M ± ES 24h” value [4]?
**A.** Its value is 45,3 ± 1,5 ml/10.

**Q.** What about the “PAW/VOLUME ml/10 - M ± ES Basal” value [4] of the same molecule?
**A.** Its value is 43,1 ± 1,5 ml/10.

**Q.** And the “AREAS Δ % M ± ES” value [4]?
**A.** The value was 161,5 ± 20,9%.

**Q.** What about the “AREAS inhib. vs. contr.” value [4] of the same molecule?
**A.** The value was 37,0.

**Q.** And the “Mean number of writhings” value [5]?
**A.** Its value is 1.4 ± 0.9.

**Q.** What about the “N. animals showing writhing” value [5] of the same molecule?
**A.** The value was 3/10.

**Q.** And the “% inhib. vs. contr.” value [5]?
**A.** The value was 89.06%.

**Q.** With `CC(SC1(C)OC(=O)c2ccccc2O1)C(=O)NCC(=O)O` (stereo not drawn) [TF 914, 2-methyl-2[1-(carboxy-methyl-amino-carbonyl)ethyl]thio-4-oxo-benzodioxane-1.3] as the molecule, how does the “gastro-injuring action (in words)” value ([3]; rat, in vivo, po) read?
**A.** The value was “substantially has no gastro-injuring action”.

**Q.** And the “EXUDATE VOLUME ml” value [2]?
**A.** The value was 1,79 ±0,25 ml.

**Q.** And the “N. LEUKOCYTES % inhib. vs. contr.” value [2]?
**A.** The value was 19.5%.

**Q.** What about the “N. LEUKOCYTES % inhib. vs. contr.” value ([2]; listed as MR 914) of the same molecule?
**A.** Its value is 19,5%.

**Q.** What about the “EXUDATE VOLUME % vs.contr.” value ([2]; 100 mg/kg) of the same molecule?
**A.** Its value is 27.2%.

**Q.** And the “EXUDATE VOLUME % vs.contr.” value ([2]; listed as MR 914, 100 mg/kg)?
**A.** Its value is 27,2%.

**Q.** And the “N. LEUKOCYTES ml” value [2]?
**A.** Its value is 10,84 ±1,32 ml.

**Q.** What about the “PAW/VOLUME ml/10 - M ± ES 2h” value [4] of the same molecule?
**A.** The value was 53,3 ± 1,6 ml/10.

**Q.** What about the “PAW/VOLUME ml/10 - M ± ES 4h” value [4] of the same molecule?
**A.** Its value is 60,4 ± 2,0 ml/10.

**Q.** What about the “PAW/VOLUME ml/10 - M ± ES 6h” value [4] of the same molecule?
**A.** Its value is 61,8 ± 2,7 ml/10.

**Q.** And the “PAW/VOLUME ml/10 - M ± ES 8h” value [4]?
**A.** The value was 54,5 ± 2,8 ml/10.

**Q.** And the “PAW/VOLUME ml/10 - M ± ES 24h” value [4]?
**A.** Its value is 45,1 ± 1,5 ml/10.

**Q.** What about the “PAW/VOLUME ml/10 - M ± ES Basal” value [4] of the same molecule?
**A.** Its value is 42,8 ± 0,7 ml/10.

**Q.** And the “AREAS Δ % M ± ES” value [4]?
**A.** Its value is 145,4 ± 20,4%.

**Q.** And the “AREAS inhib. vs. contr.” value [4]?
**A.** The value was 43,3.

**Q.** And the “Mean number of writhings” value [5]?
**A.** The value was 1.8 ± 1.1.

**Q.** What about the “N. animals showing writhing” value [5] of the same molecule?
**A.** The value was 3/10.

**Q.** And the “% inhib. vs. contr.” value [5]?
**A.** The value was 85.93%.

**Q.** What about the “bioavailability (in words)” value [6] of the same molecule?
**A.** Its value is “better bioavailability”.

**Q.** And the “persistence in blood stream (in words)” value [6]?
**A.** The value was “remain in blood stream for longer periods”.

**Q.** What about the “% increase of FlNa in comparison with controls” value [1] of the same molecule?
**A.** The value was 35.6%.

**Q.** And the LD50 ([7]; ip, Mouse)?
**A.** The LD50 was over 3000 mg/kg.

**Q.** And the LD50 ([7]; po, Mouse, os)?
**A.** Its LD50 is over 3000 mg/kg.

**Q.** What about the LD50 ([7]; po, Rat, os) of the same molecule?
**A.** Its LD50 is over 3000 mg/kg.
